Assay results: patent US20240383908A1, “SYNTHESIS AND APPLICATION OF PHOSPHATASE DEGRADER” (HINOVA PHARMACEUTICALS INC., priority 2021, published 2024)
Counter-ions that a name gives are not always drawn.

How the values were obtained:
Type in all cases: cell-based
[1] = test system: MV-411 cell line; experiment: Inhibition of cell proliferation, MV-411 (CCK-8); settings: Homo sapiens, MV4-11, 120 h, MV411 cells, 5 days, read-out: Inhibition activity on the proliferation of different cell lines MV411 (IC50)
Description: • MV-411 cell line (COBIER, CBP-60522) • FBS (GEMINI, Cat. No. 900-108) • 0.01M PBS (Biosharp, Cat. No. 162262) • IMDM (Hyclone, Cat. No. SH30228.01) • Penicillin-Streptomycin (Gibco, Cat. No. 15140122) • DMSO (Sigma, Cat. No. D5879) • Cell counting kit-8 (Signalway Antibody, Cat. No. CP002) • Centrifuge Tube, 15 ml (Excell Bio, Cat. No. CS015-0001) • Cell Culture Dish, (WHB, Cat. No. CS016-0128) • 96-well cell culture cluster (Corning, Cat. No. 3599)
• (1) Cell culture medium: IMDM medium+10% FBS+1% Pen Strep; • (2) PBS buffer: PBS powder was dissolved in 2 L of ultrapure water and sterilized;
(§1) (1) MV-411 cells were cultured in the cell culture medium, and then well-growing cells were selected and inoculated in a 96-well plate at 80 μL/well, with 2×10^4 cells/well. The plate was incubated overnight in a 5% CO2 cell incubator at 37° C.
(§2) (2) 10 mM storage solution of each drug was prepared using dimethylsulfoxide (DMSO). The stock solution was diluted in a ratio of 1:3 with DMSO before use, and then the solution was serially diluted in a ratio of 1:3, to obtain 9 gradient concentrations. Each concentration was further diluted with the medium in a ratio of 1:200 (to ensure that the DMSO concentration in the culture system was 0.1%). Two wells were set for each concentration. 20 μL of each compound solution was added to the cell culture well (with a final concentration of 10 μM, 3.3 μM, 1.1 μM . . . ). The plate was gently shaken and mixed. Additionally, 3 negative control wells (only containing cells) and 3 blank control wells (only containing the medium) were included (6 wells were each added with 20 μL of DMSO diluted with the medium in a ratio of 1:200).
(§3) (1) After 5 days of cultivation, 10 μL of CCK-8 was added to each well, and then the plate was further cultured for 3 h at 37° C. in a 5% CO2 cell incubator.
(§4) (2) The absorbance (OD value) was measured at 450 nm with a multifunctional microplate reader. (3) The data were analyzed using the Dose-response-inhibition equation in GraphPad Prism8 software to obtain the IC50 value.

[2] = test system: KYSE 520; experiment: Inhibition of cell proliferation, KYSE 520 (CCK-8); settings: Homo sapiens, KYSE 520 cells, read-out: Inhibition activity on the proliferation of different cell lines KYSE 520 (IC50)
Description: as §1, §2, §3, §4
(§5) Using a similar method, the IC50 value (nM) for the inhibitory activity of the compound according to the present invention against different cell lines was obtained, and the results are shown in Table 3 (++++: IC50>5 μM; +++: 1 μM<IC50<5 μM; ++: IC50<1 μM).

[3] = target: T1, SHP2 protein (Homo sapiens, UniProt Q06124); experiment: Degradation activity on SHP2 protein in MIA Paca-2 cells (Western blot, DC50); parameters: endogenous in cells; host or cells: MIA Paca-2 cells; settings: read-out: Degradation activity for differenct cell lines MIA Paca-2 (DC50)
T1 sequence (Q06124 1-593): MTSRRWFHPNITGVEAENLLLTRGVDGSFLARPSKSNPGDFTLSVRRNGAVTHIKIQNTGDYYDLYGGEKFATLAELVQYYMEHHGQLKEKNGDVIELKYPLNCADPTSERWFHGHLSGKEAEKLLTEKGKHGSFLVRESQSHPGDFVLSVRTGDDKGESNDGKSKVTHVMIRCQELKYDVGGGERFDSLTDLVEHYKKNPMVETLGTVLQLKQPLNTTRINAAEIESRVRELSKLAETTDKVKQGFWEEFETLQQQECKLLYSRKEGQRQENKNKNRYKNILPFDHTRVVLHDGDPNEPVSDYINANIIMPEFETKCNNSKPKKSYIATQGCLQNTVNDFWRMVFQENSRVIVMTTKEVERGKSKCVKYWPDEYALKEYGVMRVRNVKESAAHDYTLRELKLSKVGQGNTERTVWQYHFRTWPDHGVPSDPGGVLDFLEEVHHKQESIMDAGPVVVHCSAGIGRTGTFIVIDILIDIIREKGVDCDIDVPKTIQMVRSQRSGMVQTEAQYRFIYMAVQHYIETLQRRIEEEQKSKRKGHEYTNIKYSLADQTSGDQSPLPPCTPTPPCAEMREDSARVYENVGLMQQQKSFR
Outline: (§6)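 Cells were treated 24 h at 37 °C with compound (0.1–100 nM final, 0.1% DMSO). SHP2 was measured by Western blot with GAPDH as loading control, densitometry normalized to DMSO (100%). DC50, the concentration giving 50% degradation, came from a dose-response fit.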

[4] = test system: NCI-H1975; experiment: Inhibition of cell proliferation, NCI-H1975 (CCK-8); settings: Homo sapiens, NCI-H1975 cells, read-out: Inhibition activity on the proliferation of different cell lines NCI-H1975 (IC50)
Description: as §1, §2, §3, §4, §5

[5] = target: T1, SHP2 protein; experiment: Degradation activity on SHP2 protein in MV-411 cells (Western blot, DC50); parameters: endogenous in cells; settings: MV411 cells, 24 hours, read-out: Degradation activity for differenct cell lines MV411 (DC50)
Outline: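 MV-411 cells (1×10^6 cells/well, IMDM + 10% FBS) were treated 24 h with compound at 0.1-100 nM final, 0.1% DMSO, duplicates. SHP2 measured by Western blot against GAPDH, band density normalised to DMSO control; DC50 from dose-response fit.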

[6] = target: T1, SHP2 protein; experiment: Degradation activity on SHP2 protein in NCI-H358 cells (Western blot, DC50); parameters: endogenous in cells; settings: read-out: Degradation activity for differenct cell lines NCI-H358 (DC50)
Outline: as §6

[7] = test system: MIA Paca-2; experiment: Inhibition of cell proliferation, MIA Paca-2 (CCK-8); settings: Homo sapiens, MIA Paca-2 cells, read-out: Inhibition activity on the proliferation of different cell lines MIA Paca-2 (IC50)
Description: as §1, §2, §3, §4, §5

[8] = test system: NCI-H358; experiment: Inhibition of cell proliferation, NCI-H358 (CCK-8); settings: Homo sapiens, NCI-H358 cells, read-out: Inhibition activity on the proliferation of different cell lines NCI-H358 (IC50)
Description: as §1, §2, §3, §4, §5

IC50 [1] [nM]	DC50 [3] [nM]	IC50 [4] [nM]	DC50 [5] [nM]	DC50 [6] [nM]	IC50 [7] [nM]	IC50 [8] [nM]	SMILES	IC50 [2] [nM]
< 1000	> 1000						C[C@@H]1OCC2(CCN(c3cnc(Sc4cccc(NC(=O)c5ccc(N6CCC(N7CCN(c8ccc(C(=O)NCc9ccc%10c(c9)CN(C9CCC(=O)NC9=O)C%10=O)c(F)c8)CC7)CC6)cc5)c4)cn3)CC2)[C@@H]1N (some centres unmarked) [Compound 500]	1000 to 5000
	< 100	< 1000					C[C@@H]1OCC2(CCN(c3cnc(Sc4cccc(NC(=O)c5ccc(N6CCC(N7CC=C(c8ccc(C(=O)NCc9ccc%10c(c9)CN(C9CCC(=O)NC9=O)C%10=O)c(F)c8)CC7)CC6)c(F)c5)c4)cn3)CC2)[C@@H]1N (some centres unmarked) [Compound 482]	
	< 100	< 1000					C[C@@H]1OCC2(CCN(c3cnc(Sc4cccc(NCc5ccc(N6CCC(N7CC=C(c8ccc(C(=O)NCc9ccc%10c(c9)CN(C9CCC(=O)NC9=O)C%10=O)nc8)CC7)CC6)c(F)c5)c4)cn3)CC2)[C@@H]1N (some centres unmarked) [Compound 485]	
< 1000	< 100		< 100	< 100			CC1CN(c2ccc(C(=O)NCc3ccc4c(c3)CN(C3CCC(=O)NC3=O)C4=O)nn2)CC(C)N1CCCCCCCCC(=O)Nc1cccc(Sc2cnc(N3CCC(C)(N)CC3)cn2)c1 (centres unmarked) [Compound 138]	
< 1000	> 1000						C[C@@H]1OCC2(CCN(c3cnc(Sc4cccc(NC(=O)c5ccc(N6CCC(N7CCN(c8ccc(C(=O)NCc9ccc%10c(c9)CN(C9CCC(=O)NC9=O)C%10=O)cc8F)CC7)CC6)cc5)c4)cn3)CC2)[C@@H]1N (some centres unmarked) [Compound 514]	1000 to 5000
			< 100		1000 to 5000		CN(Cc1ccc2c(c1)CN(C1CCC(=O)NC1=O)C2=O)C(=O)c1ccc(N2CCN(CCCCCCCCC(=O)Nc3cccc(Sc4cnc(N5CCC(C)(N)CC5)cn4)c3)C(C(F)(F)F)C2)nn1 (centres unmarked) [Compound 175]	
< 1000			> 1000		1000 to 5000	1000 to 5000	O=C1CCC(N2Cc3cc(CNC(=O)c4ccc(N5CCC6(CN(CCC(=O)Nc7cccc(Sc8cnc(N9CCC%10(CCNC%10)CC9)cn8)c7)C6)C5)nn4)ccc3C2=O)C(=O)N1 (centres unmarked) [Compound 111]	
	< 100		< 100	< 100	1000 to 5000		CC1(N)CCN(c2cnc(Sc3cccc(NC(=O)CCCCCCN4CC5(CCN(c6ncc(C(=O)NCc7ccc8c(c7)CN(C7CCC(=O)NC7=O)C8=O)cc6Cl)C5)C4)c3)cn2)CC1 (centres unmarked) [Compound 181]	
< 1000	< 100	1000 to 5000					C[C@@H]1OCC2(CCN(c3cnc(Sc4cccc(NC(=O)c5ccc(N6CCC(N7CCN(c8ccc(C(=O)NCc9ccc%10c(c9)CN(C9CCC(=O)NC9=O)C%10=O)c(F)c8)CC7)CC6)c(F)c5)c4)cn3)CC2)[C@@H]1N (some centres unmarked) [Compound 501, hydrochloride]	1000 to 5000
	< 100	1000 to 5000					CC1(N)CCN(c2cnc(Sc3cccc(NC(=O)c4ccc(N5CCC(N6CC=C(c7ccc(C(=O)NCc8ccc9c(c8)CN(C8CCC(=O)NC8=O)C9=O)nc7)CC6)C5)cc4)c3)cn2)CC1 (centres unmarked) [Compound 403]	
	100 to 1000		< 100	100 to 1000	> 5000	> 5000	CC1(N)CCN(c2cnc(Sc3cccc(NC(=O)CCCCCCN4CC5(CCN(c6ccc(C(=O)NCc7ccc8c(c7)CN(C7CCC(=O)NC7=O)C8=O)nn6)C5)C4)c3)cn2)CC1 (centres unmarked) [Compound 110]	
> 5000	< 100						CC1(N)CCN(c2cnc(Sc3cccc(NC(=O)c4ccc(N5CCC(N6CC=C(c7cnc(C(=O)NCc8ccc9c(c8)CN(C8CCC(=O)NC8=O)C9=O)c(F)c7)CC6)CC5)c(F)c4)c3)cn2)CC1 (centres unmarked) [Compound 414]	1000 to 5000
1000 to 5000	< 100	< 1000					C[C@@H]1OCC2(CCN(c3cnc(Sc4cccc(NC(=O)c5ccc(N6CCC(N7CC=C(c8ccc(C(=O)NCc9ccc%10c(c9)CN(C9CCC(=O)NC9=O)C%10=O)nc8)CC7)CC6)c(F)c5)c4)cn3)CC2)[C@@H]1N (some centres unmarked) [Compound 412]	1000 to 5000
< 1000	< 100						C[C@@H]1OCC2(CCN(c3cnc(Sc4cccc(NC(=O)c5ccc(N6CCC(N7CC=C(c8ccc(C(=O)NCc9ccc%10c(c9)CN(C9CCC(=O)NC9=O)C%10=O)nn8)CC7)CC6)c(F)c5)c4)cn3)CC2)[C@@H]1N (stereo partly drawn) [Compound 519, N-{[2-(2,6-oxohexahydropyridine-3-yl)-1-oxo-2,3-dihydro-1H-isoindol-5-yl]methyl}-6-(1-{1-[2-fluoro-4-({[3-({5-[(3S,4S)-4-amino-3-methyl-8-aza-2-oxaspiro[4.5]decan-8-yl]pyrazin-2-yl}thio)phenyl]amino}carbonyl)phenyl]hexahydropyridine-4-yl}-1,2,3,6-tetrahydropyridin-4-yl)-1,2-diazacyclohexane-3-formamide hydrochloride]	1000 to 5000
			< 100		< 1000	< 1000	CC1(N)CCN(c2cnc(Sc3cccc(NC(=O)CCCCCCCO[C@H]4CCN(Cc5ccc(COc6cccc7c6CN(C6CCC(=O)NC6=O)C7=O)cc5)C4)c3)cn2)CC1 (some centres unmarked) [Compound 96]	
1000 to 5000	< 100			< 100			Cc1cc(C(=O)Nc2cccc(Sc3cnc(N4CCC(C)(N)CC4)cn3)c2)ccc1N1CCC(N2CC=C(c3ccc(C(=O)NCc4ccc5c(c4)CN(C4CCC(=O)NC4=O)C5=O)nc3)CC2)CC1 (centres unmarked) [Compound 422]	> 5000
< 1000	< 100			< 100			Cc1cc(N2CCC(N3CC=C(c4ccc(C(=O)NCc5ccc6c(c5)CN(C5CCC(=O)NC5=O)C6=O)nc4)CC3)CC2)ccc1C(=O)Nc1cccc(Sc2cnc(N3CCC(C)(N)CC3)cn2)c1 (centres unmarked) [Compound 421]	1000 to 5000
